Measured values: article PMC9128629, “Identification and Characterization of Bifunctional Drimenol Synthases of Marine Bacterial Origin” (ACS Chemical Biology, 2022)

Tests used:
Type in all cases: biochemical
FeDMS = target: T1, FeDMS (Flavivirga eckloniae, UniProt A0A2K9PVZ9); assay: GC-MS detection of drimenol; settings: 50 mM Tris-HCl pH 8.0, 2 mM MgCl2, 1 mM DTT, 100 μM FPP, 500 nM enzyme, 30 °C, 1 h, with or without alkaline phosphatase
T1 construct: gene C1H87_21965

[1] = target: T2, AsDMS (Aquimarina spongiae drimenol synthase) (Aquimarina spongiae, UniProt A0A1M6CXF0); assay: GC-MS detection of drimenol; settings: 50 mM Tris-HCl pH 8.0, 2 mM MgCl2, 1 mM DTT, 100 μM FPP, 200 nM enzyme, 30 °C, 1 h, with or without alkaline phosphatase
T2 construct: gene SAMN04488508_102320

[2] = target: T2, AsDMS (Aquimarina spongiae drimenol synthase); assay: GC-MS detection of drimenol; settings: 50 mM Tris-HCl pH 8.0, 2 mM MgCl2, 1 mM DTT, 100 μM FPP, 200 nM enzyme, 30 °C, 1 h, with or without alkaline phosphatase; remark: listed apart in the source
[3] = target: T3, AsDMS (Aquimarina spongiae drimenol synthase) (Aquimarina spongiae, UniProt A0A1M6CXF0, D182N/K183D, form not given); assay: GC-MS detection of drimenol; settings: 50 mM Tris-HCl pH 8.0, 2 mM MgCl2, 1 mM DTT, 100 μM FPP, 200 nM enzyme, 30 °C, 1 h, with or without alkaline phosphatase
T3 construct: gene SAMN04488508_102320

[4] = target: T2, AsDMS (Aquimarina spongiae drimenol synthase); assay: GC-MS quantification of drimenol, Michaelis-Menten fit; settings: 50 mM Tris-HCl pH 8.0, 2 mM MgCl2, 1 mM DTT, 0-120 μM FPP, 200 nM enzyme, 30 °C

T2 sequence (A0A1M6CXF0 entry or part of it): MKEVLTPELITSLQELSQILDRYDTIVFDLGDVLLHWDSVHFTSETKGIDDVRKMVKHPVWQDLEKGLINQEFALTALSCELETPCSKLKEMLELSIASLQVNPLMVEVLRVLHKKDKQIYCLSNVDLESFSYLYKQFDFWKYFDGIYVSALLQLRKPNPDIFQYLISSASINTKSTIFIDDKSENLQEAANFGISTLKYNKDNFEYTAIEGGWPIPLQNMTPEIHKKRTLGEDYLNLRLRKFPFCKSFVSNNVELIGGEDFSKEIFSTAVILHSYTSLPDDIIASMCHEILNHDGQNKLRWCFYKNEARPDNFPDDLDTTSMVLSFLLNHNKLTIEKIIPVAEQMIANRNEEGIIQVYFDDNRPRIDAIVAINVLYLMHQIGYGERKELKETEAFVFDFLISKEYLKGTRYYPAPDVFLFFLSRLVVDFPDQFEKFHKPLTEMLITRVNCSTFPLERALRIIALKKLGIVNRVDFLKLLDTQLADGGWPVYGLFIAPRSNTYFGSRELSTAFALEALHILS
T3 sequence (A0A1M6CXF0 entry or part of it D182N/K183D, form open): as the sequence (A0A1M6CXF0 entry or part of it) above, with D182N, K183D counted along it
T1 sequence (A0A2K9PVZ9 entry or part of it): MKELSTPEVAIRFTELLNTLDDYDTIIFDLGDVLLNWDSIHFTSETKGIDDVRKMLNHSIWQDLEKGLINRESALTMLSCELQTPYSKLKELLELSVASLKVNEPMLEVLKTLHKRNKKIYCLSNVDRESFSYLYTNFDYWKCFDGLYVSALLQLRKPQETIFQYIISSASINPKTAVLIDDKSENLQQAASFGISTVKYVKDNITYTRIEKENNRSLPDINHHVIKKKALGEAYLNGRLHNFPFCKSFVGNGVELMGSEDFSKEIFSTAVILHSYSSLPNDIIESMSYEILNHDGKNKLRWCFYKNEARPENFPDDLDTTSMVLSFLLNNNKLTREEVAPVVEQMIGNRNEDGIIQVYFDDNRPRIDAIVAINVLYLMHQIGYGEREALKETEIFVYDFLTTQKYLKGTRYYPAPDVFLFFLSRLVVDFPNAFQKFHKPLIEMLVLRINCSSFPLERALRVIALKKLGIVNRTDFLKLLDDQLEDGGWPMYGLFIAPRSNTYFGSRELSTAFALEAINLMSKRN

SMILES: CC(C)=CCC/C(C)=C/CC/C(C)=C/CO[P@@](=O)(O)OP(=O)(O)O [FPP]
- GC-MS detection of drimenol (FeDMS): five proteins (AsDMS, A474DMS, A119DMS, FeDMS, and RbDMS) with FPP yielded a single compound
- GC-MS detection of drimenol [1]: The D196N mutant displayed a significant decrease in activity
- GC-MS detection of drimenol [2]: exhibited almost equipotent activity to that of the WT
- GC-MS detection of drimenol [3]: a double mutant D196N/K197D
- Km [4]: 9.59 ± 2.15 µM
